Test results as given in the supplement of paper PMC7840683.
Where a name gives a salt, the structure may show the parent alone.

Tested on: HepaRG
Experiment: LDH release cytotoxicity, % of total lysis control; higher = more cytotoxic
Conditions: 48 h
In short: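 Eight-point half-log series of test chemicals, the highest at 100 µM, were given in duplicate for 48 h to single-lot HepaRG cells on collagen I-coated 96-well plates in serum-free induction medium with 0.5% DMSO. A Tecan Safire read resorufin fluorescence from CytoTox-ONE as a measure of LDH in 50 µL spent medium, with 0.1% Triton X in total lysis wells. Percent cytotoxicity was normalized to on-plate vehicle and total lysis controls and averaged over the duplicates.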

O=C(O)c1ccccc1-n1cc(C(=O)O)c(=O)c2cc(Nc3c(F)cc(F)cc3Cl)c(Cl)cc21 [AVE9423]
Conditions	LDH release cytotoxicity [%]
0.03162 µM	-1.33
0.1 µM	-1.38
0.3162278 µM	-2.06
1 µM	-2.38
3.16228 µM	-2.31
10 µM	-2.38
31.6228 µM	-1.42
100 µM	-1.52

CC[C@H](C)[C@H]1O[C@]2(C=C[C@@H]1C)C[C@@H]1C[C@@H](C/C=C(\C)[C@@H](O[C@H]3C[C@H](OC)[C@@H](O[C@H]4C[C@H](OC)[C@@H](O)[C@H](C)O4)[C@H](C)O3)[C@@H](C)/C=C/C=C3\CO[C@@H]4[C@H](O)C(C)=C[C@@H](C(=O)O1)[C@]34O)O2.CO[C@H]1C[C@H](O[C@H]2[C@H](C)O[C@@H](O[C@@H]3/C(C)=C/C[C@@H]4C[C@@H](C[C@]5(C=C[C@H](C)[C@@H](C(C)C)O5)O4)OC(=O)[C@@H]4C=C(C)[C@@H](O)[C@H]5OC/C(=C\C=C\[C@@H]3C)[C@]54O)C[C@@H]2OC)O[C@@H](C)[C@@H]1O [Abamectin]
Conditions	LDH release cytotoxicity [%]
0.0191318 µM	-1.6
0.0605 µM	-0.607
0.191318 µM	-1.03
0.605 µM	-0.868
1.913178 µM	-1.21
6.05 µM	-1.13
19.1318 µM	12.3
60.5 µM	63.56

c1cc2c3c(cccc3c1)CC2 [Acenaphthene]
Conditions	LDH release cytotoxicity [%]
0.03162 µM	-0.325
0.1 µM	-0.376
0.3162278 µM	0.475
1 µM	-0.576
3.16228 µM	-0.0334
10 µM	0.635
31.6228 µM	0.885
100 µM	1.86

C1=Cc2cccc3cccc1c23 [Acenaphthylene]
Conditions	LDH release cytotoxicity [%]
0.031623 µM	-0.662
0.1 µM	-2.98
0.316228 µM	-2.7
1 µM	-2.28
3.16228 µM	-2.7
10 µM	-2.757
31.6228 µM	-1.56
100 µM	1

COP(=O)(NC(C)=O)SC (centres undefined) [Acephate]
Conditions	LDH release cytotoxicity [%]
0.03162 µM	-0.866
0.1 µM	-0.804
0.3162278 µM	-0.558
1 µM	-0.625
3.16228 µM	-0.512
10 µM	0.394
31.6228 µM	0.786
100 µM	1.92

CC(N)=O [Acetamide]
Conditions	LDH release cytotoxicity [%]
0.03162 µM	-1.42
0.1 µM	-0.0289
0.3162278 µM	-1.35
1 µM	-2.5
3.16228 µM	-2.19
10 µM	-0.925
31.6228 µM	-0.0914
100 µM	1.3

CC(=O)Nc1ccc(O)cc1 [Acetaminophen]
Conditions	LDH release cytotoxicity [%]
0.03162 µM	-3.14
0.1 µM	-3.633
0.3162278 µM	-2.81
1 µM	-3.06
3.16228 µM	-3.13
10 µM	-3.2
31.6228 µM	-2.512
100 µM	-1.82

CC(=NC#N)N(C)Cc1ccc(Cl)nc1 [Acetamiprid]
Conditions	LDH release cytotoxicity [%]
0.03162 µM	-2.01
0.1 µM	-2.67
0.3162278 µM	-2.61
1 µM	-2.64
3.16228 µM	-2.01
10 µM	-2.44
31.6228 µM	-2.262
100 µM	0.254

CC(=O)O [Acetic acid]
Conditions	LDH release cytotoxicity [%]
0.0317809 µM	-1.92
0.1005 µM	-2.2
0.317809 µM	-1.18
1.005 µM	-1.23
3.17809 µM	-0.0523
10.05 µM	-0.22
31.7809 µM	-0.0673
100.5 µM	1.25

CCOCN(C(=O)CCl)c1c(C)cccc1CC [Acetochlor]
Conditions	LDH release cytotoxicity [%]
0.03162 µM	-0.907
0.1 µM	-1.94
0.3162278 µM	-0.877
1 µM	-0.999
3.16228 µM	-1.55
10 µM	-0.606
31.6228 µM	0.268
100 µM	56.1

CC(=O)c1ccccc1 [Acetophenone]
Conditions	LDH release cytotoxicity [%]
0.03162 µM	-2.51
0.1 µM	-2.44
0.3162278 µM	-2.72
1 µM	-2
3.16228 µM	-2.1
10 µM	-1.71
31.6228 µM	-1.38
100 µM	-0.356

CCCCOC(=O)CC(CC(=O)OCCCC)(OC(C)=O)C(=O)OCCCC [Acetyl tributyl citrate]
Conditions	LDH release cytotoxicity [%]
0.03162 µM	-1.13
0.1 µM	-1.34
0.3162278 µM	-1.35
1 µM	-1.86
3.16228 µM	-1.7
10 µM	-0.33
31.6228 µM	-0.458
100 µM	0.439

CCOC(=O)CC(CC(=O)OCC)(OC(C)=O)C(=O)OCC [Acetyltriethyl citrate]
Conditions	LDH release cytotoxicity [%]
0.03162 µM	-2.01
0.1 µM	-1.76
0.3162278 µM	-1.48
1 µM	-1.13
3.16228 µM	-0.615
10 µM	-1.09
31.6228 µM	0.655
100 µM	0.942

CSC(=O)c1cccc2nnsc12 [Acibenzolar-S-methyl]
Conditions	LDH release cytotoxicity [%]
0.03162 µM	-0.11
0.1 µM	-0.574
0.3162278 µM	-0.682
1 µM	-0.324
3.16228 µM	-0.302
10 µM	-0.414
31.6228 µM	0.737
100 µM	1.4

C=CC(N)=O [Acrylamide]
Conditions	LDH release cytotoxicity [%]
0.03162 µM	-0.83
0.1 µM	-1.21
0.3162278 µM	-1.5
1 µM	-1.596
3.16228 µM	-1.78
10 µM	-0.843
31.6228 µM	-1.75
100 µM	-0.493

CCc1cccc(CC)c1N(COC)C(=O)CCl [Alachlor]
Conditions	LDH release cytotoxicity [%]
0.031623 µM	-1.16
0.1 µM	-1.83
0.316228 µM	-2.33
1 µM	-2.4
3.16228 µM	-2.62
10 µM	-2.23
31.6228 µM	-2.51
100 µM	-0.425

CSC(C)(C)CN=O [Aldicarb oxime]
Conditions	LDH release cytotoxicity [%]
0.03162 µM	-1.16
0.1 µM	-1.16
0.3162278 µM	-0.361
1 µM	0.251
3.16228 µM	-0.674
10 µM	0.43
31.6228 µM	0.225
100 µM	0.822

CNC(=O)ON=CC(C)(C)SC [Aldicarb]
Conditions	LDH release cytotoxicity [%]
0.03162 µM	-1.61
0.1 µM	-1.37
0.3162278 µM	-2.06
1 µM	-1.68
3.16228 µM	-1.686
10 µM	-0.703
31.6228 µM	-1.04
100 µM	-0.341
